One may read the IC50 as the point on the concentration scale where inhibition reaches its midpoint.

The structures appear in SMILES notation.

Data on 18 compounds can be found in US10538498B2, “1,3,4-oxadiazole sulfonamide derivative compounds as histone deacetylase 6 inhibitor, and the pharmaceutical composition comprising the same” (Chong Kun Dang Pharmaceutical Corp., priority 2015, dated 2020).

In one experiment the target is T1, human recombinant HDAC6 (Homo sapiens, UniProt Q9UBN7).
T1 construct: purchased Calbiochem 382180
T1 sequence (Q9UBN7 1-1215): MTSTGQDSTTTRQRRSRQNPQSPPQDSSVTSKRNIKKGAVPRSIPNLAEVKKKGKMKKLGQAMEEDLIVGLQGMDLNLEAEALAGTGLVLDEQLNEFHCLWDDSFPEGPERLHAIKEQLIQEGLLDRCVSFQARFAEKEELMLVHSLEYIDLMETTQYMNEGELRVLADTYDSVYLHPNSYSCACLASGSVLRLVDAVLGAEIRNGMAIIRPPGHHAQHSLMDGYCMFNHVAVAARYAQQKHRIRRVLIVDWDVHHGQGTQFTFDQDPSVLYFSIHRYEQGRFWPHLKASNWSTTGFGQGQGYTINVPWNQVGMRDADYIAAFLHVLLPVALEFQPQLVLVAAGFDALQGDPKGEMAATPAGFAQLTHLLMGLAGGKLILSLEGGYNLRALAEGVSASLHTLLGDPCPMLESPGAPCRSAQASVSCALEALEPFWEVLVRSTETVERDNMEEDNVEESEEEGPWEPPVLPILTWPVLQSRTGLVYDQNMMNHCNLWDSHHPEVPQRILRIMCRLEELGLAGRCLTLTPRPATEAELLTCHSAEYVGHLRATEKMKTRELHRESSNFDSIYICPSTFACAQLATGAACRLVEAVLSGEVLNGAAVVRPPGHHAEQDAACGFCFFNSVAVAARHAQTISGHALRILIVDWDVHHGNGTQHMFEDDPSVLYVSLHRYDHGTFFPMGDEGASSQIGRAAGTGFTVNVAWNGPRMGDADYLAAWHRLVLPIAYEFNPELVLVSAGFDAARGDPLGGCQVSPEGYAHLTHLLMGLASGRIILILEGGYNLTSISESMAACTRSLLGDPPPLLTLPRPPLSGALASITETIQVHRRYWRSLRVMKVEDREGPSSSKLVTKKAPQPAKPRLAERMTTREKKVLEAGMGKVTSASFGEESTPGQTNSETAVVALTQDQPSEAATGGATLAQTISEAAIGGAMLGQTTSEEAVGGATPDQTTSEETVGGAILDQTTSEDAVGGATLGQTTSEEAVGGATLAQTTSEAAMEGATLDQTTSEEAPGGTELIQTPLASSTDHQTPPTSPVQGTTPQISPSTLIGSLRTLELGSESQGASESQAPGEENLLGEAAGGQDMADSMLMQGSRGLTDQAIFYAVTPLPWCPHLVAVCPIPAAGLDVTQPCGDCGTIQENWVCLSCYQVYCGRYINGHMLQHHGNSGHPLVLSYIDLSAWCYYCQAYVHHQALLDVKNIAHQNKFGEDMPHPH
Nature of the experiment: HDAC6 enzyme activity inhibition assay (HDAC Fluorimetric Drug Discovery Kit). The experiment is classed as biochemical. The settings on record: for HDAC6 selectivity (fold): HDAC1 vs HDAC6; for IC50: same protocol as the HDAC1 enzyme activity test. The method, boiled down: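 5-fold compound dilutions + 0.3 μg enzyme + 10 μM Fluor de Lys-SIRT1 substrate, 60 min, 30° C; Developer II 30 min; fluorescence Ex 360/Em 460; IC50 by curve fit.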

For the next experiment, the target named is T2, human recombinant HDAC1 (Homo sapiens, UniProt Q13547).
T2 construct: purchased Enzo Life Science BML-SE456
T2 sequence (Q13547 whole entry): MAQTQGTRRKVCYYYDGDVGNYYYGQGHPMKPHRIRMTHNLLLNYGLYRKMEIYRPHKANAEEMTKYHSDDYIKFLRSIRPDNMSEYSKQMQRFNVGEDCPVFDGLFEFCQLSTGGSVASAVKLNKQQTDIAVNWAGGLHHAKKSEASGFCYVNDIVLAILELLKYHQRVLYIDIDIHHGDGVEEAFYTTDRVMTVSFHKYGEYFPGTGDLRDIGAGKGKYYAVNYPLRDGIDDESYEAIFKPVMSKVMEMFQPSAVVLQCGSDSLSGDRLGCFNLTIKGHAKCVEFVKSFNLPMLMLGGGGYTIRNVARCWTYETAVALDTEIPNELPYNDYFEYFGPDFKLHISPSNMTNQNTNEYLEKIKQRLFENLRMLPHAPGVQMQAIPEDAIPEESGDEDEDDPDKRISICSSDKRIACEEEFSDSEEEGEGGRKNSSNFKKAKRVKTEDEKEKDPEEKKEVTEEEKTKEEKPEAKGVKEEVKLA
The experiment in a line: HDAC1 enzyme activity inhibition assay (HDAC Fluorimetric Drug Discovery Kit). The experiment is classed as biochemical. The settings on record: 0.3 μg enzyme, 10 μM substrate, 30° C., 60 minutes. The procedure: In order to examine the HDAC6 selectivity of the compounds of formula I of the present invention by HDAC1 and HDAC6 enzymatic activity inhibition assays, an experiment was performed using a conventional substance as a control.
HDAC enzyme activity was measured using a HDAC Fluorimetric Drug Discovery Kit (BML-AK511, 516, Enzo Life Science). For the HDAC1 enzyme activity test, human recombinant HDAC1 (BML-SE456) was used as an enzyme source, and Fluor de Lys®-“SIRT1 (BNL-KI177) was used as a substrate. A 5-fold dilution of the compound was seeded into a 96-well plate, and then 0.3 μg of the enzyme and 10 μM of the substrate were added to each well of the plate and allowed to react at 30° C. for 60 minutes. Then, Fluor de Lys®-Developer II (BML-KI176) was added thereto and allowed to react for 30 minutes, after which the fluorescence value (Ex 360, Em 460) was measured using a multi-plate reader (Flexstation 3, Molecular Device). The HDAC6 enzyme was tested using human recombinant HDAC6 (382180) (Calbiochem) according to the same protocol as the HDAC1 enzyme activity test method. Based on the resulting values, each IC50 value was calculated using GraphPad Prism4.0 program.

In the case of `O=C(OCCCS(=O)(=O)N(Cc1ccc(-c2nnc(C(F)F)o2)cc1)c1ccccc1)C(F)F` [Compound 11709, 3-(N-(4-(5-(difluoromethyl)-1,3,4-oxadiazol-2-yl)benzyl)-N-phenylsulfamoyl)propyl 2,2-difluoroacetate], on human recombinant HDAC6, the “HDAC6 selectivity (fold)” value came out at 1065 fold. In addition, the 50% inhibitory concentration (IC50) on human recombinant HDAC6 was 75.5 nM; at human recombinant HDAC1 it was 80400 nM.

`COc1ccc(N(Cc2ccc(-c3nnc(C(F)(F)F)o3)cc2F)S(C)(=O)=O)cc1` [Compound 11192, N-(2-fluoro-4-(5-(trifluoromethyl)-1,3,4-oxadiazol-2-yl)benzyl)-N-(4-methoxyphenyl)methanesulfonamide]: on human recombinant HDAC6, the “HDAC6 selectivity (fold)” value amounted to 108 fold. Also, the values for the IC50 on human recombinant HDAC6 and on human recombinant HDAC1 were 65 nM and 7000 nM, respectively.

Turning to `O=S(=O)(CCN1CCCCC1)N(Cc1ccc(-c2nnc(C(F)F)o2)cc1)c1ccccc1` [Compound 11629, N-(4-(5-(difluoromethyl)-1,3,4-oxadiazol-2-yl)benzyl)-N-phenyl-2-(piperidin-1-yl)ethane-1-sulfonamide], at human recombinant HDAC6, the “HDAC6 selectivity (fold)” value amounted to 1041 fold and the IC50 was determined as 96 nM.

`CS(=O)(=O)N(Cc1ccc(-c2noc(C(F)(F)F)n2)cc1)Cc1ccc(-c2nnc(C(F)F)o2)cc1F` [Compound 11389, N-(4-(5-(difluoromethyl)-1,3,4-oxadiazol-2-yl)-2-fluorobenzyl)-N-(4-(5-(trifluoromethyl)-1,2,4-oxadiazol-3-yl)benzyl)methanesulfonamide]: on human recombinant HDAC6, the “HDAC6 selectivity (fold)” value is 104 fold and the IC50 stood at 960 nM.

Regarding `Cc1cncn1CCS(=O)(=O)N(Cc1ccc(-c2nnc(C(F)F)o2)cc1)c1ccccc1` [Compound 11807, N-(4-(5-(difluoromethyl)-1,3,4-oxadiazol-2-yl)benzyl)-2-(5-methyl-1H-imidazol-1-yl)-N-phenylethane-1-sulfonamide], on human recombinant HDAC6, the “HDAC6 selectivity (fold)” value came to 1584 fold and the concentration for half-maximal inhibition (IC50) worked out at 63.1 nM.

As for `O=S(=O)(CCN1CCN(c2noc3ccccc23)CC1)N(Cc1ccc(-c2nnc(C(F)F)o2)cc1)c1ccccc1` [Compound 11844, 2-(4-(benzo[d]isoxazol-3-yl)piperazin-1-yl)-N-(4-(5-(difluoromethyl)-1,3,4-oxadiazol-2-yl)benzyl)-N-phenylethane-1-sulfonamide], at human recombinant HDAC6, the “HDAC6 selectivity (fold)” value is recorded as 172 fold and the half-maximal inhibitory concentration (IC50) amounted to 581 nM.

`CC(=O)N1CCCN(CCS(=O)(=O)N(Cc2ccc(-c3nnc(C(F)F)o3)cc2)c2ccccc2)CC1` [Compound 11759, 2-(4-acetyl-1,4-diazepan-1-yl)-N-(4-(5-(difluoromethyl)-1,3,4-oxadiazol-2-yl)benzyl)-N-phenylethane-1-sulfonamide]: at human recombinant HDAC6, the “HDAC6 selectivity (fold)” value was 984 fold and the IC50 came out at 102 nM.

`CC(C)(C)OC(=O)N1CCN(CCS(=O)(=O)N(Cc2ccc(-c3nnc(C(F)F)o3)cc2)c2ccccc2)CC1` [Compound 11631, tert-butyl 4-(2-(N-(4-(5-(difluoromethyl)-1,3,4-oxadiazol-2-yl)benzyl)-N-phenylsulfamoyl)ethyl)piperazine-1-carboxylate]: on human recombinant HDAC6, the “HDAC6 selectivity (fold)” value stood at 436 fold and the IC50 was 229 nM.

For the compound `O=S(=O)(CCN1Cc2ccccc2C1)N(Cc1ccc(-c2nnc(C(F)F)o2)cc1)c1ccccc1` [Compound 11756, N-(4-(5-(difluoromethyl)-1,3,4-oxadiazol-2-yl)benzyl)-2-(isoindolin-2-yl)-N-phenylethane-1-sulfonamide], at human recombinant HDAC6, the “HDAC6 selectivity (fold)” value is 264 fold and the IC50 was found to be 378 nM.

With `CC(C)N1Cc2ccc(N(Cc3ccc(-c4nnc(C(F)F)o4)cn3)S(C)(=O)=O)cc2C1` [Compound 11734, N-((5-(5-(difluoromethyl)-1,3,4-oxadiazol-2-yl)pyridin-2-yl)methyl)-N-(2-isopropylisoindolin-5-yl)methanesulfonamide], at human recombinant HDAC6, the “HDAC6 selectivity (fold)” value amounted to 132 fold and the 50% inhibitory concentration (IC50) is 755 nM.

With `O=S(=O)(CCn1cnc(CO)c1)N(Cc1ccc(-c2nnc(C(F)F)o2)cc1)c1ccccc1` [Compound 11808, N-(4-(5-(difluoromethyl)-1,3,4-oxadiazol-2-yl)benzyl)-2-(4-(hydroxymethyl)-1H-imidazol-1-yl)-N-phenylethane-1-sulfonamide], on human recombinant HDAC6, the “HDAC6 selectivity (fold)” value came out at 2881 fold and the half-maximal inhibitory concentration (IC50) was 34.7 nM.

`CS(=O)(=O)N(Cc1ccc(-c2nnc(C(F)F)o2)cc1F)c1cccc(Br)c1` [Compound 11197, N-(3-bromophenyl)-N-(4-(5-(difluoromethyl)-1,3,4-oxadiazol-2-yl)-2-fluorobenzyl)methanesulfonamide]: at human recombinant HDAC6, the “HDAC6 selectivity (fold)” value came to 6667 fold and the half-maximal inhibitory concentration (IC50) amounted to 15 nM.

With `CS(=O)(=O)N(Cc1ccc(-c2nnc(C(F)F)o2)cn1)CC12CC3CC(CC(C3)C1)C2` [Compound 11669, N-((adamantan-1-yl)methyl)-N-((5-(5-(difluoromethyl)-1,3,4-oxadiazol-2-yl)pyridin-2-yl)methyl)methanesulfonamide], at human recombinant HDAC6, the “HDAC6 selectivity (fold)” value was found to be 900 fold and the IC50 was found to be 111 nM.

In the case of `O=S(=O)(CCN1CCC(O)CC1)N(Cc1ccc(-c2nnc(C(F)F)o2)cc1)c1ccccc1` [Compound 11822, N-(4-(5-(difluoromethyl)-1,3,4-oxadiazol-2-yl)benzyl)-2-(4-hydroxypiperidin-1-yl)-N-phenylethane-1-sulfonamide], at human recombinant HDAC6, the “HDAC6 selectivity (fold)” value is given as 1365 fold and the half-maximal inhibitory concentration (IC50) turned out to be 73.3 nM.

In the case of `CCS(=O)(=O)N(Cc1ccc(-c2nnc(C(F)F)o2)cc1F)c1ccc(CN2CCN(C(C)=O)CC2)cc1` [Compound 11402, N-(4-((4-acetylpiperazin-1-yl)methyl)phenyl)-N-(4-(5-(difluoromethyl)-1,3,4-oxadiazol-2-yl)-2-fluorobenzyl)ethanesulfonamide], at human recombinant HDAC6, the “HDAC6 selectivity (fold)” value came to 1316 fold and the concentration for half-maximal inhibition (IC50) worked out at 76 nM.

Take `O=S(=O)(CCCN1CC[C@H](F)C1)N(Cc1ccc(-c2nnc(C(F)F)o2)cc1)c1ccccc1` [Compound 11705, (S)—N-(4-(5-(difluoromethyl)-1,3,4-oxadiazol-2-yl)benzyl)-3-(3-fluoropyrrolidin-1-yl)-N-phenylpropane-1-sulfonamide]: at human recombinant HDAC6, the “HDAC6 selectivity (fold)” value is recorded as 637 fold and the IC50 is 157 nM.

As for `CS(=O)(=O)N1CCC(S(=O)(=O)N(Cc2ccc(-c3nnc(C(F)F)o3)cn2)c2ccccc2)CC1` [Compound 11426, N-((5-(5-(difluoromethyl)-1,3,4-oxadiazol-2-yl)pyridin-2-yl)methyl)-1-(methylsulfonyl)-N-phenylpiperidine-4-sulfonamide], at human recombinant HDAC6, the “HDAC6 selectivity (fold)” value came out at 7692 fold and the concentration for half-maximal inhibition (IC50) was 13 nM.

As to `CS(=O)(=O)N(Cc1ccc(-c2nnc(C(F)F)o2)cc1F)[C@H]1CCc2ccccc21` [Compound 11749, (S)—N-(4-(5-(difluoromethyl)-1,3,4-oxadiazol-2-yl)-2-fluorobenzyl)-N-(2,3-dihydro-1H-inden-1-yl)methanesulfonamide], at human recombinant HDAC6, the “HDAC6 selectivity (fold)” value is recorded as 255 fold and the IC50 is 391 nM.
